# Values of other authors as cited in patent publication US10729708B2, “Stabilized glycopeptide antibiotic formulations” (XELLIA PHARMACEUTICALS APS, priority 2016, dated 2020).
# Assays:
# Settings in all cases: QC strain, CLSI protocol
# [1] = test system: Staphylococcus aureus ATCC 29213
# [2] = test system: Enterococcus faecalis ATCC 29212
# [3] = test system: Streptococcus pnemoniae ATCC 49619
compound,measurement,setting,value
CN[C@H](CC(C)C)C(=O)NC1C(=O)N[C@@H](CC(N)=O)C(=O)N[C@H]2C(=O)N[C@H]3C(=O)NC(C(=O)N[C@@H](C(=O)O)c4cc(O)cc(O)c4-c4cc3ccc4O)[C@H](O)c3ccc(c(Cl)c3)Oc3cc2cc(c3O[C@@H]2OC(CO)[C@@H](O)C(O)C2O[C@H]2CC(C)(N)[C@H](O)C(C)O2)Oc2ccc(cc2Cl)C1O.Cl (stereo partly drawn) [Vancomycin],Referent MIC ranges,[1],0.5 to 2 mg/L
same,Referent MIC ranges,[2],1 to 4 mg/L
same,Referent MIC ranges,[3],0.125 to 0.5 mg/L
